Values joined by “and” are separate entries in the source; they are usually repeats but may differ in a detail not shown here. Equal values may be shown once. Read-outs that look alike come from different tables or passages of the source.

The conditions of data set [1]: cited from earlier work.
The nature of data set [2]: Solubility in dry organic solvents. Format: physicochemical.
The conditions of data set [3]: reported value for comparison, cited from earlier work; for reported E1/2 / observed peak position for W2^5+/4+: THF.
Data set [4] is described as follows: Gas-phase photoelectron spectroscopy (PES) of the δ bond ionization. Format: physicochemical. To be noted: for onset ionization energy (IEonset, PESonset): first ionization band; for vertical ionization energy (VIE, PESvertical): position of main Gaussian peak. The protocol: The gas-phase PES of W2(TMhpp)4 and W2(TEhpp)4 were recorded using an instrument that features a 36-cm radius, 8-cm gap hemispherical analyzer, and custom-designed excitation source, sample cells, detection and control electronics, and methods that have been described, for example, in Rev. Sci. Instrum. 1986, 57, 2366 and J. Am. Chem. Soc. 1998, 120, 3382-3386. The temperature was monitored using a “K”-type thermocouple passed through a vacuum feed through and attached directly to the sample cell. Samples of W2(TMhpp)4 and W2(TEhpp)4 were loaded into stainless steel cells and placed in the instrument using rigorous air-sensitive techniques. The data collection focused on determining the δ bond ionization energy. To avoid decomposition in the sample chamber of the cell, ampoules containing the samples were broken off and placed directly in the ionization chamber.
Complete spectra were collected every few minutes.
The ^2P3/2 peak of argon at 15.76 eV ionization energy is typically used for internal energy calibration, but over the course of the experiment sensitivity to the ^2P3/2 peak of Ar was lost. This often happens with molecules that are strong reductants, presumably because of the very large change in work function of the spectrometer when the sample condenses on the spectrometer surfaces. At this point the lamp was adjusted to emit He II photons in addition to He I photons. This allowed observation of the He self-ionization (by He II photons) at an apparent binding energy of 4.99 eV in the He I spectrum. This very sharp line is a convenient internal energy calibrant and is preferable for the calibration of low-energy ionizations. The resolution, as measured by the Ar peak before it was no longer visible, was approximately 0.030 eV. The resolution for the W2(TMhpp)4 and W2(TEhpp)4 experiments, as measured by the He self-ionization, was 71 meV and 88 meV, respectively. Over the course of two separate data collections of W2(TMhpp)4, approximately 800 counts of the full He I spectrum (Graphic S1) and an additional 400 counts of a close-up on the δ bond ionization were collected. For W2(TEhpp)4 approximately 400 counts of the δ bond ionization were collected.
The ionization bands are represented analytically with asymmetric Gaussian peaks. As is typical for the first ionization bands of M2(hpp)4 molecules, a weak shoulder is observed on the high ionization energy side of the peak that necessitates the use of a second asymmetric Gaussian component to reasonably account for the total contour of the ionization intensity. The additional ionization intensity on the high ionization energy side of the first band is ascribed to the different puckered conformations that the hpp ligands can adopt in the molecules. […]

The conditions of data set [5]: comparison value; cited from earlier work.
Data set [6] is described as follows: Differential pulse voltammetry in THF vs Ag/AgCl. Format: physicochemical. Conditions: DPV peak. The method, then: ^1H NMR spectra were recorded on a Mercury 300 spectrometer with chemical shifts referenced to the protonated solvent residue. Mass spectrometry data (electrospray ionization, ESI) were recorded at the Laboratory for Biological Mass Spectrometry at Texas A&M University using an MDS Series Qstar Pulsar with a spray voltage of 5 kV. Elemental analyses were performed by Robertson Microlit Laboratories, Inc., Madison, N.J. on crystalline samples that were previously washed with cold hexanes and dried overnight under vacuum. Infrared spectra were recorded in a Perkin-Elmer 16PC FT IR spectrophotometer using KBr pellets. Electronic spectra were recorded on a Shimadzu UV-2501 PC spectrophotometer. The differential pulse voltammograms were collected using a CH Instruments model-CHI620A electrochemical analyzer in a 0.1 M Bu^n4NPF6 solution in THF, using Pt working and auxiliary electrodes, a Ag/AgCl reference electrode, and a scan rate of 100 mV/s. All potential values are referenced to the Ag/AgCl electrode, and under the present experimental conditions, the E1/2 for the Fc^+/Fc couple consistently occurred at +440 mV.

The conditions of data set [7]: vacuum.
A short description of data set [8]: Ionization energies of comparison substances. Format: physicochemical. To be noted: difference versus compounds 3 and 4.
The nature of data set [9]: Literature potentials and solvation energy of comparison substances. Format: physicochemical. To be noted: difference versus compounds 3 and 4.
[10] abbreviates: common dry solvents such as THF, toluene, and benzene.
Setting [11] is: non-halogenated, non-protonated solvents such as THF, toluene, benzene and even hexanes.

On to `[K]` [K, potassium], for which, in [1] (in THF), the “E1/2, literature” value is listed as −2.66 V.
Consider `C1CN2CCC[N+]3=C2[N](C1)[W-2]124[N]5CCCN6CCC[N+](=C65)[W-2]31([N+]1=C3N(CCC[N]32)CCC1)[N+]1=C2N(CCC[N]24)CCC1` [W2(hpp)4, reference compound], for which the solubility result in [2] (non-reactive organic solvents) is “poor solubility”. For the same compound, in data set [3], the “reported E1/2 / observed peak position for W2^5+/4+” value is −1.81 V and the “reported E1/2 for W2^6+/5+” value is recorded as −0.97 V. Further, in data set [4], the “onset ionization energy (IEonset, PESonset)” value is 3.51 eV and 3.51±0.05 eV; the “vertical ionization energy (VIE, PESvertical)” value is given as 3.76 eV.
In the case of `C1CN=C2[N-]CCCN2C1.C1CN=C2[N-]CCCN2C1.C1CN=C2[N-]CCCN2C1.C1CN=C2[N-]CCCN2C1.FC(F)(F)c1cc([B-](c2cc(C(F)(F)F)cc(C(F)(F)F)c2)(c2cc(C(F)(F)F)cc(C(F)(F)F)c2)c2cc(C(F)(F)F)cc(C(F)(F)F)c2)cc(C(F)(F)F)c1.FC(F)(F)c1cc([B-](c2cc(C(F)(F)F)cc(C(F)(F)F)c2)(c2cc(C(F)(F)F)cc(C(F)(F)F)c2)c2cc(C(F)(F)F)cc(C(F)(F)F)c2)cc(C(F)(F)F)c1.[W+3]#[W+3]` [W2(hpp)4^2+ (TFPB^−)2], the “reported E1/2 / observed peak position for W2^5+/4+” value in data set [3] was −1.81 V.
On to `[Cs]` [cesium], for which, in data set [5], the “ionization energy (IE)” value was 3.89 eV.
Regarding `CC1(C)CN2CC(C)(C)C[N+]3=C2[N](C1)[W-2]124([Cl])[N]5CC(C)(C)CN6CC(C)(C)C[N+](=C65)[W-2]31([Cl])([N+]1=C3N(CC(C)(C)C[N]32)CC(C)(C)C1)[N+]1=C2N(CC(C)(C)C[N]24)CC(C)(C)C1` [compound 1, W2(TMhpp)4Cl2], in [6], the “E1/2(1), W2^6+/5+ process” value is on record as −0.99 V and the “E1/2(2), W2^5+/4+ process” value is listed as −1.84 V.
The matching figures for `CCC1(CC)CN2CC(CC)(CC)C[N+]3=C2[N](C1)[W-2]124([Cl])[N]5CC(CC)(CC)CN6CC(CC)(CC)C[N+](=C65)[W-2]31([Cl])([N+]1=C3N(CC(CC)(CC)C[N]32)CC(CC)(CC)C1)[N+]1=C2N(CC(CC)(CC)C[N]24)CC(CC)(CC)C1` [compound 2, W2(TEhpp)4Cl2]: −0.99 V and −1.90 V.
On to W2(TEhpp)4 [compound 4], for which the “solubility properties compared to decamethylcobaltocene” value in data set [2] is given as “compare very favorably”. The values for the solubility result in [2] (setting [10]), in [2] (hexanes) and in data set [2] (setting [11]) were “very soluble”, “significantly more soluble” and “very soluble”, respectively. Also, the “decomposition during PES measurement” value in [7] (317-340° C., about 1 h) is “In neither case was there any evidence of decomposition”; in data set [7] (317-340° C., about 1 h, listed as W2(TEhpp)4), “without evidence of decomposition”. The “onset ionization energy (IEonset, PESonset)” value in data set [4] came to 3.40±0.05 eV. Moreover, the “vertical ionization energy (VIE, PESvertical)” value in [4] worked out at 3.71±0.03 eV.
W2(TMhpp)4 [compound 3]: in [2], the “solubility properties compared to decamethylcobaltocene” value is on record as “compare very favorably”. The solubility result in data set [2] (setting [10]) is reported as “very soluble”; in [2] (hexanes) it was “Some solubility”; in [2] (setting [11]), “very soluble”. The “decomposition during PES measurement” value in data set [7] (216 to 271° C., 2½ h) is recorded as “In neither case was there any evidence of decomposition”; in data set [7] (216 to 271° C., 2½ h, listed as W2(TMhpp)4), “without evidence of decomposition”.
For the compound decamethylcobaltocene [(Cp*)2Co], in data set [8], the “ionization energy greater than that of compounds 3 and 4” value is “more than 1 eV”. Besides, the “ionization energy (IE)” value in data set [5] is 4.705 eV. In addition, the “oxidation potential less negative than that of compounds 3 and 4” value in [9] is listed as “approximately 0.4 V”. For the same compound, the oxidation potential in data set [1] (comparison value) is −1.47 V.
